Measurements taken from the CombiSolv-Exp solvation set (Vermeire and Green 2021).

Test: solvent given as SMILES

CCCOC(=O)CCC
solvation free energy, 298 K (in O): -2.28 kcal/mol

Cc1ccc(N)cc1
solvation free energy, 298 K (in CC(C)CC(C)(C)C): -6.29 kcal/mol | solvation free energy, 298 K (in CCCCCC): -6.06 kcal/mol | solvation free energy, 298 K (in CCCCCCC): -6.14 kcal/mol | solvation free energy, 298 K (in CCCCCCCC): -6.29 kcal/mol | solvation free energy, 298 K (in Cc1cccc(C)c1): -7.26 kcal/mol | solvation free energy, 298 K (in Cc1ccccc1C): -7.27 kcal/mol

C=CC=O
solvation free energy, 298 K (in CCCCCO): -3.22 kcal/mol | solvation free energy, 298 K (in CCCCO): -3.21 kcal/mol | solvation free energy, 298 K (in O): -3.16 kcal/mol

COC(C)C
solvation free energy, 298 K (in O): -2.01 kcal/mol

COC(=O)c1ccc(N)cc1
solvation free energy, 298 K (in CCCO): -11.1 kcal/mol

CN(Cc1ccccc1)N=O
solvation free energy, 298 K (in O): -7.03 kcal/mol

CCOC
solvation free energy, 298 K (in O): -2.1 kcal/mol

Oc1ccc(I)cc1
solvation free energy, 298 K (in O): -7.61 kcal/mol

C=C1C2CCC(C2)C1(C)C (centres undefined)
solvation free energy, 298 K (in O): 0.61 kcal/mol

CCCI
solvation free energy, 298 K (in C=CCCCCCCCCCCCCCC): -4.16 kcal/mol | solvation free energy, 298 K (in ClC(Cl)(Cl)Cl): -4.97 kcal/mol | solvation free energy, 298 K (in O): -0.56 kcal/mol

CC(=O)C(C)C(C)=O
solvation free energy, 298 K (in O): -4.75 kcal/mol

CCCOC(=O)c1ccccc1O
solvation free energy, 298 K (in O): -3.66 kcal/mol

FC(F)=CCl
solvation free energy, 298 K (in CCCCCCCC(=O)OCC(COC(=O)CCCCCCC)OC(=O)CCCCCCC): -1.77 kcal/mol | solvation free energy, 298 K (in CCCCCCCCO): -1.69 kcal/mol | solvation free energy, 298 K (in CN1CCCC1=O): -2.26 kcal/mol | solvation free energy, 298 K (in CN(C)C=O): -1.99 kcal/mol | solvation free energy, 298 K (in O): 0.52 kcal/mol

Cc1cccc(C)c1O
solvation free energy, 298 K (in CC(C)CC(C)(C)C): -6.55 kcal/mol | solvation free energy, 298 K (in O): -5.26 kcal/mol

O=C(OC1CCCCCC1)c1ccccc1C(=O)OC1CCCCCC1
solvation free energy, 298 K (in O): -8.87 kcal/mol

O=NN1CCCCC1
solvation free energy, 298 K (in O): -6.34 kcal/mol

Sc1ccccc1
solvation free energy, 298 K (in O): -2.55 kcal/mol

Cc1ccc(C(C)C)c(O)c1
solvation free energy, 298 K (in CCCO): -10.2 kcal/mol | solvation free energy, 298 K (in CCO): -10.3 kcal/mol | solvation free energy, 298 K (in CO): -10.3 kcal/mol | solvation free energy, 298 K (in O): -5.81 kcal/mol

CCCCC(C)CCC (centres undefined)
solvation free energy, 298 K (in O): 3.57 kcal/mol

CC(C)CC(=O)CC(C)C
solvation free energy, 298 K (in CCCCCCC): -6.13 kcal/mol

CCCCOCCOC(=O)c1ccccc1C(=O)OCCOCCCC
solvation free energy, 298 K (in O): -12.8 kcal/mol

C#CC
solvation free energy, 298 K (in C1CCC2CCCCC2C1): -1.49 kcal/mol | solvation free energy, 298 K (in C1COCCO1): -2.46 kcal/mol | solvation free energy, 298 K (in CC1COC(=O)O1): -2.04 kcal/mol | solvation free energy, 298 K (in CC(C)=O): -2.48 kcal/mol | solvation free energy, 298 K (in CC(C)CC(C)(C)C): -1.66 kcal/mol | solvation free energy, 298 K (in CCCCCCCCCCCCCCCC): -1.4 kcal/mol | solvation free energy, 298 K (in CN1CCCC1=O): -2.47 kcal/mol | solvation free energy, 298 K (in CN(C)C=O): -2.49 kcal/mol | solvation free energy, 298 K (in CN(C)P(=O)(N(C)C)N(C)C): -2.6 kcal/mol | solvation free energy, 298 K (in COC(C)=O): -2.51 kcal/mol | solvation free energy, 298 K (in COCCOCCOCCOC): -2.03 kcal/mol | solvation free energy, 298 K (in CS(C)=O): -2.14 kcal/mol | solvation free energy, 298 K (in Nc1ccccc1): -2.01 kcal/mol | solvation free energy, 298 K (in O): -0.48 kcal/mol | solvation free energy, 298 K (in OCCCOCCCO): -1.53 kcal/mol | solvation free energy, 298 K (in OCCO): -1.22 kcal/mol | solvation free energy, 298 K (in OCc1ccccc1): -1.77 kcal/mol

Clc1ccc(Br)cc1
solvation free energy, 298 K (in CC(C)CO): -6.51 kcal/mol | solvation free energy, 298 K (in CCCCOCCCC): -7.08 kcal/mol | solvation free energy, 298 K (in COC(C)(C)C): -7.27 kcal/mol | solvation free energy, 298 K (in O): -1.61 kcal/mol

O=c1[nH]cc(Br)c(=O)[nH]1
solvation free energy, 298 K (in O): -18.2 kcal/mol

CC(C)CC(C)(C)C
solvation free energy, 298 K (in C1CCOC1): -4.65 kcal/mol | solvation free energy, 298 K (in CC1CCS(=O)(=O)C1): -2.59 kcal/mol | solvation free energy, 298 K (in CC#N): -3.11 kcal/mol | solvation free energy, 298 K (in CC(C)(C)O): -3.6 kcal/mol | solvation free energy, 298 K (in CC(C)O): -3.68 kcal/mol | solvation free energy, 298 K (in CC(C)OC(C)C): -4.57 kcal/mol | solvation free energy, 298 K (in CCC(C)=O): -4.05 kcal/mol | solvation free energy, 298 K (in CCCCCCCC): -4.53 kcal/mol | solvation free energy, 298 K (in CCCCCCCCCCCCCCCC): -4.26 kcal/mol | solvation free energy, 298 K (in CCCCCCCCCCO): -3.9 kcal/mol | solvation free energy, 298 K (in CCCCCCO): -4.07 kcal/mol | solvation free energy, 298 K (in CCCCCO): -3.89 kcal/mol | solvation free energy, 298 K (in CCCCCl): -4.57 kcal/mol | solvation free energy, 298 K (in CCCO): -3.67 kcal/mol | solvation free energy, 298 K (in CCO): -3.84 kcal/mol | solvation free energy, 298 K (in CN1CCCC1=O): -3.12 kcal/mol | solvation free energy, 298 K (in CN(C)C=O): -3.18 kcal/mol | solvation free energy, 298 K (in COC(C)(C)C): -4.65 kcal/mol | solvation free energy, 298 K (in N#CCCOCCC#N): -1.86 kcal/mol | solvation free energy, 298 K (in O): 2.92 kcal/mol | solvation free energy, 298 K (in O=CN1CCOCC1): -2.44 kcal/mol | solvation free energy, 298 K (in OCCO): -1.05 kcal/mol | solvation free energy, 298 K (in OCCOCCO): -1.78 kcal/mol | solvation free energy, 298 K (in OCCOCCOCCO): -1.88 kcal/mol | solvation free energy, 298 K (in OCCS): -2.36 kcal/mol

FC(F)(F)C(F)(F)C(F)(F)C(F)(F)C(F)(F)C(F)(F)C(F)(F)F
solvation free energy, 298 K (in CCCCCCC): -2.35 kcal/mol | solvation free energy, 298 K (in CCCCO): -1.29 kcal/mol | solvation free energy, 298 K (in CCCO): -1.24 kcal/mol | solvation free energy, 298 K (in S=C=S): -0.45 kcal/mol

CN(C)C(=O)Nc1ccc(Cl)c(Cl)c1
solvation free energy, 298 K (in CC(C)CCO): -14.6 kcal/mol | solvation free energy, 298 K (in CCCC(C)O): -14.5 kcal/mol | solvation free energy, 298 K (in CCCCCl): -13.3 kcal/mol | solvation free energy, 298 K (in CCCCOC(C)=O): -14.5 kcal/mol | solvation free energy, 298 K (in CCCCOCCCC): -12.6 kcal/mol | solvation free energy, 298 K (in CCOC(C)=O): -14.6 kcal/mol | solvation free energy, 298 K (in COC(C)=O): -14.6 kcal/mol | solvation free energy, 298 K (in ClC(Cl)(Cl)Cl): -12.4 kcal/mol | solvation free energy, 298 K (in ClC(Cl)Cl): -14.5 kcal/mol | solvation free energy, 298 K (in ClCCCl): -14.3 kcal/mol | solvation free energy, 298 K (in ClCCl): -14.2 kcal/mol | solvation free energy, 298 K (in Clc1ccccc1): -13.6 kcal/mol | solvation free energy, 298 K (in O): -10.9 kcal/mol

CN(C)C
solvation free energy, 298 K (in CC(C)=O): -2.56 kcal/mol | solvation free energy, 298 K (in CCCCCC): -2.63 kcal/mol | solvation free energy, 298 K (in CCCCCCC): -2.44 kcal/mol | solvation free energy, 298 K (in CCCCO): -2.91 kcal/mol | solvation free energy, 298 K (in CCCO): -3.49 kcal/mol | solvation free energy, 298 K (in CCO): -3.64 kcal/mol | solvation free energy, 298 K (in CN(C)C=O): -2.41 kcal/mol | solvation free energy, 298 K (in ClC(Cl)(Cl)Cl): -2.89 kcal/mol | solvation free energy, 298 K (in ClC(Cl)Cl): -3.9 kcal/mol | solvation free energy, 298 K (in O): -3.2 kcal/mol

CCc1cccs1
solvation free energy, 298 K (in O): -0.93 kcal/mol

C=CC(C)(C)O
solvation free energy, 298 K (in O): -4.19 kcal/mol

ClCCBr
solvation free energy, 298 K (in O): -1.95 kcal/mol

ClC1=C(Cl)C2(Cl)C3C(Cl)CC(Cl)C3C1(Cl)C2(Cl)Cl (centres undefined)
solvation free energy, 298 K (in O): -3.44 kcal/mol

CC1=CCC2C3C1C2(C)CCCC3(C)C (centres undefined)
solvation free energy, 298 K (in O): 0.29 kcal/mol

Cc1ccc(C)cc1
solvation free energy, 298 K (in CC#N): -5.16 kcal/mol | solvation free energy, 298 K (in CC(C)CC(C)(C)C): -5.39 kcal/mol | solvation free energy, 298 K (in CC(C)CO): -4.94 kcal/mol | solvation free energy, 298 K (in CC(O)CO): -4.14 kcal/mol | solvation free energy, 298 K (in CCCCCCC): -5.45 kcal/mol | solvation free energy, 298 K (in CCCCCCCCCCCCCCCC): -5.27 kcal/mol | solvation free energy, 298 K (in CCCCCCCCO): -5.17 kcal/mol | solvation free energy, 298 K (in CCCCOC(C)=O): -6.1 kcal/mol | solvation free energy, 298 K (in CCO): -5.09 kcal/mol | solvation free energy, 298 K (in CNC=O): -4.8 kcal/mol | solvation free energy, 298 K (in COCCO): -5.06 kcal/mol | solvation free energy, 298 K (in ClC(Cl)(Cl)Cl): -5.73 kcal/mol | solvation free energy, 298 K (in ClCCCl): -5.96 kcal/mol | solvation free energy, 298 K (in NC=O): -3.27 kcal/mol | solvation free energy, 298 K (in NCCO): -3.84 kcal/mol | solvation free energy, 298 K (in O): -0.75 kcal/mol | solvation free energy, 298 K (in O=CN1CCOCC1): -4.98 kcal/mol | solvation free energy, 298 K (in OCCO): -3.4 kcal/mol | solvation free energy, 298 K (in OCCOCCO): -4.23 kcal/mol | solvation free energy, 298 K (in OCCOCCOCCO): -4.37 kcal/mol

Clc1cc(Cl)c(Cl)c(Cl)c1
solvation free energy, 298 K (in CCCCCCCCO): -7.57 kcal/mol | solvation free energy, 298 K (in O): -1.62 kcal/mol

C=CC(C)(CCC=C(C)C)OC(=O)CCC (centres undefined)
solvation free energy, 298 K (in O): -3.38 kcal/mol

Oc1cccc(Cl)c1
solvation free energy, 298 K (in CCCCCC): -6.52 kcal/mol | solvation free energy, 298 K (in CCCCCCC): -6.51 kcal/mol | solvation free energy, 298 K (in CCCCCCCC): -6.48 kcal/mol | solvation free energy, 298 K (in CCCCCCCCCC): -6.48 kcal/mol | solvation free energy, 298 K (in Cc1ccc(C)cc1): -7.97 kcal/mol | solvation free energy, 298 K (in Cc1cccc(C)c1): -8.05 kcal/mol | solvation free energy, 298 K (in Cc1ccccc1C): -8.07 kcal/mol | solvation free energy, 298 K (in O): -6.62 kcal/mol

CCCCC(C)C
solvation free energy, 298 K (in C=CCCCCCCCCCCCCCC): -3.96 kcal/mol | solvation free energy, 298 K (in CC#N): -2.99 kcal/mol | solvation free energy, 298 K (in O): 2.93 kcal/mol

COc1cc(C=O)cc(-c2cc(C=O)cc(OC)c2O)c1O
solvation free energy, 298 K (in CCC(C)=O): -21.9 kcal/mol | solvation free energy, 298 K (in Cc1ccccc1): -19.6 kcal/mol | solvation free energy, 298 K (in ClC=CCl): -20.6 kcal/mol

CCCC(O)C(C)C (centres undefined)
solvation free energy, 298 K (in CCCCCCCC): -5.34 kcal/mol | solvation free energy, 298 K (in CCCCCCCCCC): -5.46 kcal/mol

CCCCCI
solvation free energy, 298 K (in O): -0.14 kcal/mol

CCCC(=O)CCC
solvation free energy, 298 K (in CCCCOCCCC): -5.6 kcal/mol | solvation free energy, 298 K (in CO): -5.77 kcal/mol | solvation free energy, 298 K (in O): -2.92 kcal/mol

CNC=O
solvation free energy, 298 K (in C1CCCCC1): -3.86 kcal/mol | solvation free energy, 298 K (in CC(C)=O): -7.35 kcal/mol | solvation free energy, 298 K (in CCCCCCC): -3.68 kcal/mol | solvation free energy, 298 K (in O): -8.87 kcal/mol
